This is an account of results in patent US20230115208A1, “RING-FUSED THIAZOLINO 2-PYRIDONES, METHODS FOR PREPARATION THEREOF AND THEIR USE IN THE TREATMENT AND/OR PREVENTION OF TUBERCULOSIS” (QURETECH BIO AB, priority 2016, published 2023).

Like-named read-outs stand apart in the source and are kept apart here.

The test system of experiment [1] is Mycobacterium tuberculosis. It is filed as cell-based.
Experiment [2] relates to Mycobacterium tuberculosis. Type of experiment: cell-based. The source holds these as a separate data set.
Experiment [3] has as its system Erdman Wild-Type Mycobacterium tuberculosis. Type of experiment: cell-based.
Experiment [4] has as its system katGFSAA6 Mtb. The experiment in a line: Lawn of katGFSAA6 Mtb plated on agar (FIG. 9c-9f). Type of experiment: cell-based, Mycobacterium tuberculosis.
Experiment [5] has as its system Mtb. The settings on record: cited from earlier work.
Experiment [6] deals with Mycobacterium tuberculosis Erdman. The experiment in a line: Biofilm inhibition of Mycobacterium tuberculosis (ocular inspection). It is filed as cell-based. The settings on record: for inhibition at 10 µM: read-out: Average % Inhibition at 10 μM; for inhibition at 25 µM: read-out: Average % Inhibition at 25 μM; for minimal effective concentration: concentration at which full biofilm inhibition took place, replicate determinations in one cell.

[7] abbreviates: biofilm inhibition, 10 μM, average of three or more measurements (100/50/0% scoring).
The mark [8] stands for this setting: biofilm inhibition, 25 μM, average of three or more measurements (100/50/0% scoring).
The mark [9] stands for this setting: biofilm inhibition, average of three or more measurements (100/50/0% scoring).

With `O=C(O)[C@@H]1CSc2c(C3CC3)c(Cc3cccc4ccccc34)cc(=O)n21` [(3R)-7-Cyclopropyl-6-[(1-naphthyl)methyl]-4-oxo-1-thia-3a-aza-3-indancarboxylic acid], the “eradication of Mycobacterium tuberculosis (conclusion)” value in experiment [1] is recorded as “did not eradicate”.
Consider `NNC(=O)c1ccncc1` [INH, isonicotinylhydrazide, reference compound], for which the “tuberculosis bacteria detected (ratio of CFU treated/untreated)” value in experiment [2] ([…], Example 1 50 microM, Example 19 25 microM) is listed as “tuberculosis bacteria remained”. Moreover, in experiment [2] (conclusions from FIG. 5 and FIG. 6 experiments), the “eradication of Mycobacterium tuberculosis (conclusion)” value was “did not eradicate”. In experiment [3], the “Mtb growth as measured by ODλ600” value is recorded as “completely inhibited” and the “culturable bacteria remaining (CFU)” value is on record as “several thousand”. Further, the “growth of katGFSAA6 strain on agar” value in experiment [4] (agar plates containing INH, Example 1 or combination) is recorded as “able to grow”. For the same compound, the MIC – broadly, the least concentration at which growth counts as inhibited – in experiment [5] is 0.02 to 0.06 µg/mL.
Turning to `O=C(O)[C@@H]1CSc2c(C3CC3)c(Cc3cccc4ccccc34)c(Br)c(=O)n21` [Example 41, (3R)-5-Bromo-7-cyclopropyl-6-[(1-naphthyl)methyl]-4-oxo-1-thia-3a-aza-3-indancarboxylic acid], the inhibition – broadly, the change of the read-out against control, counted positive when it falls – at 10 µM in experiment [6] (setting [7]) was determined as 25%. For the same compound, in experiment [6] (setting [8]), the inhibition at 25 µM was found to be 62%. In addition, in experiment [6] (setting [9]), the inhibition at 50 µM was 88% and the inhibition at 100 µM is 100%.
With `O=C(O)[C@@H]1CSc2c(C3CC3)c(Cc3cc4ccccc4s3)cc(=O)n21` [Example 2, (3R)-7-Cyclopropyl-4-oxo-6-{(7-thiabicyclo[4.3.0]nona-1,3,5,8-tetraen-8-yl)methyl}-1-thia-3a-aza-3-indancarboxylic acid], the inhibition at 10 µM in experiment [6] (setting [7]) came to 63%. Moreover, the inhibition at 25 µM in experiment [6] (setting [8]) worked out at 100%. This compound yielded an inhibition at 50 µM in experiment [6] (setting [9]) of 75%. Also, the minimal effective concentration (as a rule, the smallest amount tested that counted as effective) in experiment [6] was found to be 25 µM.
Turning to `O=C(O)[C@@H]1CSc2c(C3CC3)c(Cc3cccc4ccccc34)cc(=O)n21` [Example 1, (3R)-7-Cyclopropyl-6-[(1-naphthyl)methyl]-4-oxo-1-thia-3a-aza-3-indancarboxylic acid], in experiment [6], the inhibition at 10 µM is 100% and the inhibition at 25 µM was 100%. Moreover, in experiment [3], the doubling time was found to be 52 h and the “fold less Mtb in the culture as compared to controls (CFU)” value was found to be 7.6 fold. In experiment [4], the “growth of katGFSAA6 strain on agar” value is given as “able to grow”.
Turning to `Cc1cccc(Cc2cc(=O)n3c(c2C2CC2)SC[C@H]3C(=O)O)c1C` [Example 9, (3R)-7-Cyclopropyl-4-oxo-6-[(2,3-xylyl)methyl]-1-thia-3a-aza-3-indancarboxylic acid], the inhibition at 10 µM in experiment [6] (setting [7]) is 50%. Moreover, the inhibition at 25 µM in experiment [6] (setting [8]) is 87%. In experiment [6] (setting [9]), this compound registered an inhibition at 50 µM of 87%. In addition, the minimal effective concentration in experiment [6] was determined as 25 µM.
With `O=C(O)[C@@H]1CSc2c(C3CC3)c(Cc3cccc(Cl)c3Cl)cc(=O)n21` [Example 20, (3R)-7-Cyclopropyl-6-[(2,3-dichlorophenyl)methyl]-4-oxo-1-thia-3a-aza-3-indancarboxylic acid], the inhibition at 10 µM in experiment [6] (setting [7]) worked out at 75%. Besides, the inhibition at 25 µM in experiment [6] (setting [8]) came out at 100%. This compound came in with an inhibition at 50 µM in experiment [6] (setting [9]) of 100%. The minimal effective concentration in experiment [6] is 25 µM.
Turning to `CN(C)c1c(Cc2cccc3ccccc23)cc(=O)n2c1SC[C@H]2C(=O)O` [Example 40, (3R)-7-(Dimethylamino)-6-[(1-naphthyl)methyl]-4-oxo-1-thia-3a-aza-3-indancarboxylic acid], the inhibition at 10 µM in experiment [6] (setting [7]) came to 50%. Further, in experiment [6] (setting [8]), the inhibition at 25 µM is 100%. For the same compound, in experiment [6] (setting [9]), the inhibition at 50 µM was 50%.
For `O=C(O)[C@@H]1CSc2c(-c3cccs3)c(Cc3cccc4ccccc34)cc(=O)n21` [Example 17, (3R)-6-[(1-Naphthyl)methyl]-4-oxo-7-(2-thienyl)-1-thia-3a-aza-3-indancarboxylic acid], the inhibition at 10 µM in experiment [6] (setting [7]) was determined as 25%. Besides, the inhibition at 25 µM in experiment [6] (setting [8]) came to 38%. For the same compound, in experiment [6] (setting [9]), the inhibition at 50 µM is 100%. In experiment [6], the minimal effective concentration worked out at 50 µM.
`Cc1c(Cc2cccc3ccccc23)cc(=O)n2c1SC[C@H]2C(=O)O` [Example 10, (3R)-7-Methyl-6-[(1-naphthyl)methyl]-4-oxo-1-thia-3a-aza-3-indancarboxylic acid]: the inhibition at 10 µM in experiment [6] (setting [7]) is 69%. The inhibition at 25 µM in experiment [6] (setting [8]) amounted to 100%. Further, in experiment [6] (setting [9]), the inhibition at 50 µM is 100%.
In the case of `O=C(O)c1c(Cc2ccccc2)sc2c(C3CC3)c(Cc3cccc4ccccc34)cc(=O)n12` [Example 19, 8-Benzyl-5-cyclopropyl-4-[(1-naphthyl)methyl]-2-oxo-7-thia-1-azabicyclo[4.3.0]nona-3,5,8-triene-9-carboxylic acid], in experiment [6] (setting [7]), the inhibition at 10 µM is 0%. In experiment [6] (setting [8]), the inhibition at 25 µM was determined as 0%. Further, in experiment [6] (setting [9]), the inhibition at 50 µM was determined as 88% and testing at 100 µM gave an inhibition of 100%.
Take `O=C(O)[C@@H]1CSc2c(C3CC3)c(Cc3ccc(Cl)cc3)cc(=O)n21` [Example 25, (3R)-6-[(p-Chlorophenyl)methyl]-7-cyclopropyl-4-oxo-1-thia-3a-aza-3-indancarboxylic acid]: the inhibition at 25 µM in experiment [6] (setting [8]) stood at 12%. Moreover, the inhibition at 50 µM in experiment [6] (setting [9]) came out at 50%.
As to `O=C(O)[C@@H]1CSc2c(C(F)(F)F)c(Cc3cccc4ccccc34)cc(=O)n21` [Example 47, (3R)-6-[(1-Naphthyl)methyl]-4-oxo-7-(trifluoromethyl)-1-thia-3a-aza-3-indancarboxylic acid], the inhibition at 50 µM in experiment [6] (setting [9]) was determined as 100%. The compound further gave a minimal effective concentration in experiment [6] greater than 50 µM.
For the compound `O=C(O)[C@@H]1CSc2c(OCC3CC3)c(Cc3cccc4ccccc34)cc(=O)n21` [Example 50, (3R)-7-(Cyclopropylmethoxy)-6-[(1-naphthyl)methyl]-4-oxo-1-thia-3a-aza-3-indancarboxylic acid], the inhibition at 50 µM in experiment [6] (setting [9]) came out at 25%.
In turn, `O=C(O)[C@@H]1[C@@H](c2ccccc2)Sc2c(C3CC3)c(Cc3cccc4ccccc34)cc(=O)n21` [Example 34, (2R,3R)-7-Cyclopropyl-6-[(1-naphthyl)methyl]-4-oxo-2-phenyl-1-thia-3a-aza-3-indancarboxylic acid] had an inhibition at 50 µM in experiment [6] (setting [9]) of 25%. In addition, the minimal effective concentration in experiment [6] was found to be 30 µM.
On to `O=C(O)c1c(-c2c[nH]nn2)sc2c(C3CC3)c(Cc3cccc4ccccc34)cc(=O)n12` [Example 18, 5-Cyclopropyl-4-[(1-naphthyl)methyl]-2-oxo-8-(1H-1,2,3-triazol-4-yl)-7-thia-1-azabicyclo[4.3.0]nona-3,5,8-triene-9-carboxylic acid], for which the inhibition at 10 µM in experiment [6] (setting [7]) amounted to 12%. Besides, the inhibition at 25 µM in experiment [6] (setting [8]) worked out at 12%. This compound had an inhibition at 50 µM in experiment [6] (setting [9]) of 38%.
`O=c1cc(Cc2cccc3ccccc23)c(C2CC2)c2n1[C@H](CO)CS2` [Example 16, (3R)-7-Cyclopropyl-3-(hydroxymethyl)-6-[(1-naphthyl)methyl]-1-thia-3a-aza-4-indanone]: the inhibition at 10 µM in experiment [6] (setting [7]) worked out at 25%. Moreover, the inhibition at 25 µM in experiment [6] (setting [8]) is 62%. At 50 µM the inhibition in experiment [6] (setting [9]) was 100%.
The like results for `CON(C)C(=O)[C@@H]1CSc2c(C3CC3)c(Cc3cccc4ccccc34)cc(=O)n21` [Example 11, (N-Methylmethoxyamino){(3R)-7-cyclopropyl-6-[(1-naphthyl)methyl]-4-oxo-1-thia-3a-aza-3-indanyl}formaldehyde] were, in that order, 75%, 38% and 88%.
In the case of `CO[C@H]1Sc2c(C3CC3)c(Cc3cccc4ccccc34)cc(=O)n2[C@@H]1C(=O)O` [Example 35, (2S,3R)-7-Cyclopropyl-2-methoxy-6-[(1-naphthyl)methyl]-4-oxo-1-thia-3a-aza-3-indancarboxylic acid], the inhibition at 25 µM in experiment [6] (setting [8]) was 25%. In experiment [6] (setting [9]), this compound showed an inhibition at 100 µM of 75%. The minimal effective concentration in experiment [6] was found to be 50 µM.
Regarding `CC(C)c1c(Cc2cccc3ccccc23)cc(=O)n2c1SC[C@H]2C(=O)O` [Example 23, (3R)-7-Isopropyl-6-[(1-naphthyl)methyl]-4-oxo-1-thia-3a-aza-3-indancarboxylic acid], the inhibition at 25 µM in experiment [6] (setting [8]) worked out at 12%. 50 µM produced 50% inhibition in experiment [6] (setting [9]).
Regarding `O=C(O)c1c(-c2ccsc2)sc2c(C3CC3)c(Cc3cccc4ccccc34)cc(=O)n12` [Example 6, 5-Cyclopropyl-4-[(1-naphthyl)methyl]-2-oxo-8-(3-thienyl)-7-thia-1-azabicyclo[4.3.0]nona-3,5,8-triene-9-carboxylic acid], the inhibition at 10 µM in experiment [6] (setting [7]) was 50%. The inhibition at 25 µM in experiment [6] (setting [8]) was 88%. For the same compound, in experiment [6] (setting [9]), the inhibition at 50 µM was determined as 100% and testing at 100 µM gave an inhibition of 100%. For the same compound, in experiment [6], the minimal effective concentration stood at 30 µM.
Consider `Cc1cc(=O)n2c(c1C1CC1)SC[C@H]2C(=O)O` [Example 24, (3R)-7-Cyclopropyl-6-methyl-4-oxo-1-thia-3a-aza-3-indancarboxylic acid], for which the inhibition at 25 µM in experiment [6] (setting [8]) amounted to 12%. The inhibition at 50 µM in experiment [6] (setting [9]) was found to be 62%.
As to `O=C(O)C1C[S+]([O-])c2c(C3CC3)c(Cc3cccc4ccccc34)cc(=O)n21` (centres unmarked) [Example 44, 7-Cyclopropyl-6-[(1-naphthyl)methyl]-1-oxo-4-oxo-1-thia-3a-aza-3-indancarboxylic acid], in experiment [6] (setting [7]), the inhibition at 10 µM stood at 25%. Besides, in experiment [6] (setting [8]), the inhibition at 25 µM amounted to 75%. The compound further gave an inhibition at 50 µM in experiment [6] (setting [9]) of 100%.
For the compound `O=C(O)c1c(-c2ccccc2)sc2c(C3CC3)c(Cc3cccc4ccccc34)cc(=O)n12` [Example 13, 5-Cyclopropyl-4-[(1-naphthyl)methyl]-2-oxo-8-phenyl-7-thia-1-azabicyclo[4.3.0]nona-3,5,8-triene-9-carboxylic acid], the inhibition at 10 µM in experiment [6] (setting [7]) was determined as 62%. Moreover, the inhibition at 25 µM in experiment [6] (setting [8]) worked out at 75%. At 50 µM the inhibition in experiment [6] (setting [9]) was 100%. Moreover, the minimal effective concentration in experiment [6] was 50 µM.
